Columns and labels:
[1] = test system: normotensive and hypertensive rats; experiment: antihypertensive activity in vivo, blood pressure in conscious cannulated rats; conditions: for effect on diastolic blood pressure: i.v. administration
Protocol: Cannulas are run intradermally so as to be externalized in the dorso-sacral area of either side and kept in place by wound clips. The rats are allowed to regain consciousness after being placed in a small animal restrainer. The arterial cannula is connected to a pressure transducer for constant blood pressure and heart rate monitoring. Drugs are administered either orally via gavage or i.v. via the femoral vein cannula at a rate of 0.06 ml./minute.
The above test is conducted on both normotensive and hypertensive rats. DOCA Salt hypertensive rats are prepared from male uninephrectomized Sprague-Dawley rats. The rats, approximately six weeks of age, are lightly anesthetized with ether and subcutaneously implanted with a 25 mg. deoxycorticosterone acetate pellet in the left dorso-sacral area..Six days later a second pellet is implanted in the right dorso-sacral area. These rats are fed a normal laboratory diet, but are given 1% saline - solution to drink in place of water. The rats are kept on the saline drinking water for 22-24 days.
The following table sets forth the effect of 6-chloro-2,3,4,5-tetrahydro-3-methyl-lH-3-benzazepine on blood pressure after i.v. administration to both normotensive and hypertensive rats.

rabbit = experiment: normal rabbit intraocular pressure determination (applanation pneumatonograph); format: in vivo; conditions: given systemically
alpha2 = experiment: prejunctional alpha2 antagonist activity, isolated superfused guinea pig left atrium (shift of clonidine concentration-response curve); format: cell-based
Protocol: Briefly, the heart is removed from a pentobarbital-anesthetized male guinea pig. The left atrium is removed, dissected free of extraneous tissue and mounted in a 2 ml. superfusion chamber. The tissue is paced at 60 pulse/minute and the sympathetic nerves excited at 6 minute intervals by field stimulation. The response to nerve stimulation is measured as the difference in contractile force between the basal contraction and peak contraction following a nerve stimulation. A concentration-response curve for clonidine (alpha2 agonist) is prepared by administering an increasing concentration of clonidine following each successive stimulation. The tissue is then superfused with the alpha2 antagonist to be tested for thirty minutes and the clonidine concentration-effect curve was repeated in the presence of antagonist. The receptor dissociation constant of the antagonist (KB) is defined as the antagonist concentration required to shift the log concentration-response curve of the agonist to the right by a factor of 2.

Structure (SMILES)	effect on diastolic blood pressure ([1]; DOCA Salt hypertensive rats)	antihypertensive effect, dose dependence ([1]; comparison of the 0.5 mg./kg. and 1.0 mg./kg. doses, i.v.)	effect on diastolic blood pressure ([1]; normotensive rats)	effect on diastolic blood pressure ([1]; spontaneously hypertensive rats)	effect on systemic blood pressure (rabbit)	Kb (alpha2; isolated perfused guinea pig left atrium, antagonist concentration shifting clonidine curve to the right by a factor of 2)	alpha2 antagonist activity relative to the 6-chloro derivative (alpha2; fraction of the activity of the 6-chloro derivative)
CN1CCc2cccc(Cl)c2CC1 [6-chloro-2,3,4,5-tetrahydro-3-methyl-lH-3-benzazepine]	marked drop	dose- related	little effect	marked drop	no significant effect	13 nM	
CN1CCc2ccc(Cl)cc2CC1 [7-chloro-2,3,4,5-tetrahydro-3-methyl-lH-3-benzazepine, reference compound]							about one tenth

Source: EP0108170A1, “3-Benzazepines as alpha-2 antagonists” (SMITHKLINE BECKMAN CORPORATION, priority 1982, dated 1984)
